Reference: US6570004B1 (priority 1996, dated 2003)

Tested on: dapE- H. pylori mutant
Format: cell-based, Helicobacter pylori

N[C@H](CCC[C@H](N)C(=O)O)C(=O)O [DAP, diaminopimelic acid]
Minimum DAP concentration required for survival of the dapE− mutant: 0.2 mM
